From US5616593A, “Compositions containing piperine” (priority 1993, dated 1997)

What was measured:
[1] = Clinical study comparing bio-availability of two amlodipine formulations (with and without piperine); format: in vivo, human (healthy volunteers); details: with vs without piperine; amlodipine 10 mg, piperine 5 mg, hard gelatin capsules; 12 healthy volunteers
Description: Dosage Form: Hard gelatin capsules
Amlodipine and piperine were milled. The two components were blended together.
The homogenecity of five random samples of the mixture was confirmed from reproducible analysis. The formulation was then encapsulated in hard gelatin capsule in hand-operated capsule filling machine.
To compare the bio-availability of two formulations containing amlodipine (with and without piperine) a clinical study was conducted in 12 healthy volunteers.

[2] = cited from earlier work
[3] = Intrinsic pharmaceutical or medicinal properties of piperine; details: piperine alone
[4] = Retention of certain drugs in the body; parameters: species or system human; details: combined with piperine
serum proteins = test: Binding of the serum proteins; parameters: species or system human; details: combined with drug
[5] = tested on: natural immune mechanism of the body; test: Stimulation of natural immune mechanism / antibody production; parameters: species or system human
[6] = Absorption of certain drugs through gastro-intestinal membranes; parameters: species or system human; details: through membranes of gastro-intestinal tract
[7] = combined with known anti-tuberculosis and/or anti-leprosy drugs; cited from earlier work
[8] = Clinical trial comparing bio-availability of two pentazocine formulations (with and without piperine); format: in vivo, human (healthy volunteers); details: with vs without piperine; pentazocine 25 mg, piperine 5 mg, hard gelatin capsules; 12 healthy volunteers
Description: Pentazocine -- -- 25 mg.
Dosage Form: Hard gelatin capsules.
Both pentazocine and piperine were milled and were then blended together. With repeated sieving, both the components were mixed to a homogenous mixture. Five samples of mixtures were randomly selected and their homogenecity was confirmed by reproducible analysis. With the help of hand-operated capsule filling machine, the formulation was encapsulated in hard gelatin capsule.
A clinical trial was conducted in 12 healthy volunteers in order to compare the bio-availability of two formulations containing pentazocine (with and without piperine).

CCOC(=O)C1=C(COCCN)NC(C)=C(C(=O)OC)C1c1ccccc1Cl (stereo not shown) [Amlodipine]
blood levels of the active ingredient amlodipine [1]: increased blood levels

O=C(/C=C/C=C/c1ccc2c(c1)OCO2)N1CCCCC1 [Piperine]
solubility in organic solvents ([2]; benzene, chloroform, ether, ethyl acetate, dichloromethane, alcohol, acetic acid): soluble in benzene, chloroform, ether, ethyl acetate, dichloromethane, alcohol, acetic acid | solubility in water and petroleum ether ([2]; water, petroleum ether): insoluble in water, and petroleum ether | pharmaceutical or medicinal properties of piperine as such [3]: does not have any pharmaceutical or medicinal properties | retention of certain drugs in the human body [4]: retain certain drugs when combined with it in the human body for a longer period of time | binding of the serum proteins (serum proteins): increase the binding of the serum proteins | stimulation of natural immune mechanism, production of antibodies against microbial infections [5]: stimulate the natural immune mechanism of the body so as to enhance the production of antibodies against microbial infections | absorption of certain drugs [6]: increase the absorption of certain drugs | therapeutic efficacy of anti-tuberculosis and/or anti-leprosy drugs [7]: increased therapeutic efficacy

CC(C)=CCN1CCC2(C)c3cc(O)ccc3CC1C2C (stereo not shown) [pentazocine]
blood levels of the active ingredient pentazocine [8]: increased blood levels
